The values that follow come from ChEMBL document CHEMBL1201862, “PubChem BioAssay data set” (2004).

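Results reflect a 48-hour exposure of cells in 96-well plates to compound at five concentrations. Abbreviation: GI50, concentration required for 50% inhibition of growth.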 Active and inactive are the calls of the source. No stated cut-off is given here; in the data, active = GI50 up to about 1.1 µM and inactive = higher. A value given as a limit tells only on which side of the number the result lay.

Test in all cases: NCI-60 cell line screen, 48 h
The test system of assay [1] is NCI-H23.
In assay [2] the test system is OVCAR-5.
For assay [3], the system named is UACC-257.
Assay [4] has as its system ACHN.
The subject of assay [5] is TK-10.
In assay [6] the test system is OVCAR-4.
The subject of assay [7] is T47D.
The test system of assay [8] is SK-MEL-28.
The test system of assay [9] is M14.
The test system of assay [10] is HCT-15.
Assay [11] concerns SK-OV-3.
The subject of assay [12] is NCI-H226.
The subject of assay [13] is SNB-19.
In assay [14] the test system is NCI-H522.
The subject of assay [15] is MOLT-4.
Assay [16] has as its system IGROV-1.
In assay [17] the test system is MDA-MB-231.
Assay [18] concerns MDA-MB-435.
In assay [19] the test system is CCRF-CEM.
Assay [20] has as its system BT-549.

Take `CCCCCCCCCCCCCCCCOCC(COP(=O)(O)OCC1OC(n2cc(CC)c(=O)[nH]c2=O)CC1O)OC(=O)CCCCCCCCCCCCCCC` (centres undefined): the GI50 in assay [1], in assay [2], in [3], in assay [4], in assay [5] and in assay [6] was > 100 µM (inactive) each time. Moreover, the GI50 in [7] was > 100 µM (inactive); in [8] it was > 100 µM (inactive); in [9], > 100 µM (inactive); in assay [10] it was over 100 µM; in assay [11], > 100 µM (inactive); in assay [12], > 100 µM (inactive). The GI50 in [13], in assay [14], in [15], in assay [16], in assay [17] and in assay [18] was > 100 µM (inactive) in each case. Besides, the GI50 in [19] is > 100 µM (inactive).

`CCOCc1c(C)cc(C)c(C2C(C(=O)c3ccccc3)N3c4ccccc4C=CC3C2(C#N)C(=O)OCC)c1C` (centres undefined): the GI50 in [1] is 44.4 µM (inactive); in assay [2], 64.9 µM (inactive); in assay [3] it was 50.1 µM (inactive); in [4], 50.9 µM (inactive); in [20], 28.1 µM (inactive); in [6] it was 37 µM (inactive). Further, the GI50 is 64.6 µM (inactive) in [8]; 36.5 µM (inactive) in assay [9]; 44.2 µM in assay [10]; > 100 µM (inactive) in [13]; 86.5 µM (inactive) in assay [15]; 10.6 µM (inactive) in [16]. For the same compound, the GI50 in assay [18] is 38.7 µM (inactive); in assay [19] it was 56.4 µM (inactive).

Consider `O=c1[nH]n(Cc2ccccn2)c2ccc([N+](=O)[O-])cc12`, for which the GI50 in assay [1], in [2], in assay [3], in assay [4], in [5] and in [6] was > 100 µM (inactive) each time. The GI50 in [8] is > 100 µM (inactive); in assay [9], > 100 µM (inactive); in assay [10] it was over 100 µM; in assay [12], > 100 µM (inactive); in assay [13] it was > 100 µM (inactive); in assay [14] it was > 100 µM (inactive). In addition, the GI50 in assay [15], in assay [16], in assay [17] and in [19] was > 100 µM (inactive) each time.

As to `Cc1ccc(S(=O)(=O)NC(=O)NCCc2c[nH]cn2)cc1`, the GI50 in assay [1], in assay [2], in assay [4], in [5], in [6] and in assay [8] was > 100 µM (inactive) in each case. The GI50 was > 100 µM (inactive) in assay [9]; over 100 µM in assay [10]; > 100 µM (inactive) in assay [11]; > 100 µM (inactive) in assay [12]; > 100 µM (inactive) in assay [13]; > 100 µM (inactive) in [14]. Also, the GI50 in assay [15], in assay [16], in assay [17] and in [18] was > 100 µM (inactive) throughout.

Regarding `[N-]=[N+]=C(C(=O)N1CCCC1=O)S(=O)(=O)c1ccccc1`, the GI50 in assay [1] was 72.9 µM (inactive); in [3] it was > 100 µM (inactive); in assay [4] it was > 100 µM (inactive); in assay [5], > 100 µM (inactive); in assay [20], > 100 µM (inactive); in [8], 48.5 µM (inactive). The GI50 in assay [9] is 91.2 µM (inactive); in assay [10], 51.9 µM; in assay [13], > 100 µM (inactive); in [14], 30.9 µM (inactive); in assay [15], 50.2 µM (inactive); in assay [16] it was > 100 µM (inactive). Also, the GI50 is > 100 µM (inactive) in assay [17], 77.8 µM (inactive) in [18] and 80.7 µM (inactive) in assay [19].

Consider `CC1CCC2c3c([nH]c4ccccc34)C3C(=O)N(c4ccccc4)C(=O)C3C2C1` (centres undefined), for which the GI50 in assay [1] was 34.4 µM (inactive); in [2], > 100 µM (inactive); in [3], > 250 µM (inactive); in assay [4] it was 21.8 µM (inactive); in assay [5] it was 21.7 µM (inactive); in assay [6], > 250 µM (inactive). The GI50 in [8] is > 250 µM (inactive); in assay [9], 46.1 µM (inactive); in assay [10] it was over 250 µM; in assay [11], 10.1 µM (inactive); in [12], 32.1 µM (inactive); in assay [13], 32.6 µM (inactive). The GI50 was 142 µM (inactive) in assay [14], 25.4 µM (inactive) in assay [15], 19.7 µM (inactive) in assay [16] and 20 µM (inactive) in [19].

For the compound `Cc1nc2ccc(Cl)cc2c(-n2ccnc2)c1CCn1ccnc1`, the GI50 in assay [1] is 27.1 µM (inactive); in assay [2], 21.5 µM (inactive); in assay [3], 18.8 µM (inactive); in assay [4] it was 15.7 µM (inactive); in assay [5], 30.2 µM (inactive); in assay [20] it was 19.8 µM (inactive). Also, the GI50 was 18.9 µM (inactive) in assay [6]; 29.9 µM (inactive) in [8]; 27.8 µM (inactive) in assay [9]; 22.7 µM in assay [10]; 31 µM (inactive) in [11]; 16.4 µM (inactive) in assay [12]. The GI50 in assay [13] is 53.7 µM (inactive); in assay [14] it was 22.4 µM (inactive); in assay [16] it was 26.1 µM (inactive); in assay [17], 17.8 µM (inactive); in assay [18], 32.1 µM (inactive); in [19] it was 18 µM (inactive).

On to `C/C(=N\N(C)C)c1sc(-n2nc(-c3ccccc3)cc2-c2ccccc2)nc1C`, for which the GI50 in assay [1] was > 100 µM (inactive); in assay [2] it was 21 µM (inactive); in assay [3] it was > 100 µM (inactive); in [4] it was > 100 µM (inactive); in assay [5] it was 72.8 µM (inactive); in [6], > 100 µM (inactive). Moreover, the GI50 in assay [8] was > 100 µM (inactive); in assay [9] it was > 100 µM (inactive); in assay [10] it was over 100 µM; in [11] it was > 100 µM (inactive); in assay [12], > 100 µM (inactive); in assay [13], > 100 µM (inactive). The GI50 in assay [14] was > 100 µM (inactive); in [15] it was 84.3 µM (inactive); in assay [16], > 100 µM (inactive); in [19], > 100 µM (inactive).

With `CCOC(=O)Cc1csc2[n+]1C(=O)/C(=C\c1cccc(Cl)c1Cl)S2`, the GI50 in assay [1] was 13.3 µM (inactive); in [2], 32.6 µM (inactive); in [3] it was 20.1 µM (inactive); in [4], 17.9 µM (inactive); in [5] it was 16 µM (inactive); in assay [20] it was 17.6 µM (inactive). In addition, the GI50 in assay [6] was 11.6 µM (inactive); in assay [8] it was 19.5 µM (inactive); in assay [9] it was 26.9 µM (inactive); in assay [10], 16.2 µM; in assay [11] it was 17.3 µM (inactive); in [12], 14.8 µM (inactive). For the same compound, the GI50 is 21 µM (inactive) in [13]; 14.8 µM (inactive) in [14]; 10.3 µM (inactive) in [15]; 20.1 µM (inactive) in assay [16]; 25.9 µM (inactive) in [17]; 13.7 µM (inactive) in assay [18]. Further, in assay [19], the GI50 is 12.7 µM (inactive).

Consider `C/C=C1\CC2C(=O)CCC2C2c3ccccc3OC12` (centres undefined), for which the GI50 in assay [1], in [2], in assay [3], in assay [4], in [5] and in assay [6] was > 100 µM (inactive) in each case. Besides, the GI50 in assay [8] is > 100 µM (inactive); in [9], > 100 µM (inactive); in assay [10], over 100 µM; in assay [11], > 100 µM (inactive); in [12], > 100 µM (inactive); in assay [13], > 100 µM (inactive). Further, the GI50 in assay [14], in assay [15], in [16], in [17], in assay [18] and in assay [19] was > 100 µM (inactive) in each case.

Consider `O=CC1CCCc2ccccc21` (centres undefined), for which the GI50 in [1] is > 100 µM (inactive); in [2], > 100 µM (inactive); in [3], > 74.3 µM (inactive); in assay [4] it was > 100 µM (inactive); in assay [5] it was > 100 µM (inactive); in [6] it was > 100 µM (inactive). The GI50 in [8] was > 100 µM (inactive); in assay [9], > 100 µM (inactive); in assay [10], over 51.5 µM; in assay [11] it was > 100 µM (inactive); in [12], > 100 µM (inactive); in assay [13], > 100 µM (inactive). Besides, the GI50 was > 79.6 µM (inactive) in [14], > 100 µM (inactive) in assay [15], > 100 µM (inactive) in assay [16] and > 49.7 µM (inactive) in assay [19].

As to `CN(CC(=O)O)c1ncc2c(n1)-c1ccccc1SC2`, the GI50 in [1], in [2], in assay [3], in [4], in assay [5] and in [6] was > 100 µM (inactive) in each case. The GI50 in [8] was > 100 µM (inactive); in [9], > 100 µM (inactive); in assay [10], over 100 µM; in assay [13] it was > 100 µM (inactive); in assay [14], > 100 µM (inactive); in assay [15] it was > 100 µM (inactive). Also, the GI50 in assay [16], in assay [17], in assay [18] and in assay [19] was > 100 µM (inactive) throughout.
